Results taken from US20200331925A1, “HETEROCYCLIC COMPOUNDS FOR THE TREATMENT OF ABNORMAL CELLULAR PROLIFERATION” (G1 Therapeutics, Inc., priority 2018, published 2020).

Experiments:
Assay type in all cases: biochemical
CDK1/Cyclin B1 = CDK1/Cyclin B1 (Homo sapiens, UniProt P06493); assay: CDK1/Cyclin B1 kinase assay (Nanosyn, Caliper microfluidic); settings: 12-point dose-response, ATP at Km (40 μM), 3 hr
How it was run: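 Mobility-shift microfluidic kinase assay, 12-point dose-response in singlicate. Conditions: 0.08 nM enzyme, 40 μM ATP (Km), 1 μM peptide substrate, 3 hr incubation; staurosporine as reference.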

CDK2/Cyclin A = CDK2/Cyclin A (Homo sapiens, UniProt P24941); assay: CDK2/Cyclin A kinase assay (Nanosyn, Caliper microfluidic); settings: 12-point dose-response, ATP at Km (50 μM), 3 hr
How it was run: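 Caliper microfluidic mobility-shift read-out; 0.1 nM enzyme, 50 μM ATP (Km), 1 μM peptide substrate, 3 hr incubation. 12-point dose-response in singlicate; staurosporine as reference.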

CDK2/Cyclin E = CDK2/Cyclin E (Homo sapiens, UniProt P24941); assay: CDK2/Cyclin E kinase assay (Nanosyn, Caliper microfluidic); settings: 12-point dose-response, ATP at Km (100 μM), 3 hr
How it was run: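 Caliper microfluidic mobility-shift readout of phosphorylation of 1 μM substrate peptide by 0.15 nM enzyme at 100 μM ATP (stated as Km), 3 hr incubation. 12-point dose-response in singlicate, staurosporine as reference.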

CDK3/Cyclin E = CDK3/Cyclin E (Homo sapiens, UniProt Q00526); assay: CDK3/Cyclin E kinase assay (Nanosyn, Caliper microfluidic); settings: 12-point dose-response, ATP at Km (400 μM), 3 hr
How it was run: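 Caliper microfluidic mobility-shift read-out with 1 nM enzyme, 400 μM ATP (stated as Km) and 1 μM peptide substrate, 3 hr incubation. Compounds run as 12-point dose-response in singlicate.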

CDK4/Cyclin D1 = CDK4/Cyclin D1 (Homo sapiens, UniProt P11802); assay: CDK4/Cyclin D1 kinase assay (Nanosyn, Caliper microfluidic); settings: 12-point dose-response, ATP at Km (200 μM), 3 hr; Table 4
CDK4/Cyclin D1, sequence (P11802 whole entry): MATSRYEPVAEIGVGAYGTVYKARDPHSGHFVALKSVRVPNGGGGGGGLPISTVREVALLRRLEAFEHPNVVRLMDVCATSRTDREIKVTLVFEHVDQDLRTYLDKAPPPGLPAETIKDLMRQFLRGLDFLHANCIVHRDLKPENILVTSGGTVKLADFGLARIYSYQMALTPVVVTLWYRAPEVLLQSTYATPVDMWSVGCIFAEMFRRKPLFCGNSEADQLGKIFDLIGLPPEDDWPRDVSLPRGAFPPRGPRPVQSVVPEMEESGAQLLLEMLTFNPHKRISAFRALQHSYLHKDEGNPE
CDK4/Cyclin D1, sequence (P24385 whole entry partner): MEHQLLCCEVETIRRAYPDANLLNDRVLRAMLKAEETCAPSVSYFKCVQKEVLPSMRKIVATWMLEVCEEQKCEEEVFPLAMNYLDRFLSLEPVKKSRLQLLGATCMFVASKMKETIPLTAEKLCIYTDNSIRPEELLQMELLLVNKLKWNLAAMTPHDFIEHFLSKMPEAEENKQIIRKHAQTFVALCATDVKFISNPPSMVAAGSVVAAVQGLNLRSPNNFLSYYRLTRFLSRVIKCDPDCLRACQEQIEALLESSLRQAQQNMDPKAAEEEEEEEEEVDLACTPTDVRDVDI
How it was run: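 Caliper microfluidic mobility-shift read-out, 12-point dose-response in singlicate. 1 nM enzyme, 200 μM ATP (Km), 1 μM peptide substrate, 3 hr incubation; staurosporine as reference.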

CDK5/p35 = CDK5/p35 (Homo sapiens, UniProt Q00535); assay: CDK5/p35 kinase assay (Nanosyn, Caliper microfluidic); settings: 12-point dose-response, ATP at Km (20 μM), 3 hr
How it was run: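 Microfluidic mobility-shift kinase assay with 0.05 nM CDK5/p35, 20 μM ATP (Km) and 1 μM peptide substrate, 3 hr incubation. Compounds tested as 12-point dose–response in singlicate; staurosporine as reference.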

CDK5/p25 = CDK5/p25 (Homo sapiens, UniProt Q00535); assay: CDK5/p25 kinase assay (Nanosyn, Caliper microfluidic); settings: 12-point dose-response, ATP at Km (20 μM), 3 hr
CDK5/p25, sequence (Q00535 whole entry): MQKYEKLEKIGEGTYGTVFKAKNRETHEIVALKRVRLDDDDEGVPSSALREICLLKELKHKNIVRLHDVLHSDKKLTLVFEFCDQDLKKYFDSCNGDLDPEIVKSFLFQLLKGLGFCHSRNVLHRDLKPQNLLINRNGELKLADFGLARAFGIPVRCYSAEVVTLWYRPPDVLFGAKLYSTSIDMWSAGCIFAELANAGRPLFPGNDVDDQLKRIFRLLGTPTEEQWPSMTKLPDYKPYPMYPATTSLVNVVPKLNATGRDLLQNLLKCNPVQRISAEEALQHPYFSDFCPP
CDK5/p25, sequence (Q15078 99-307 partner limits assumed): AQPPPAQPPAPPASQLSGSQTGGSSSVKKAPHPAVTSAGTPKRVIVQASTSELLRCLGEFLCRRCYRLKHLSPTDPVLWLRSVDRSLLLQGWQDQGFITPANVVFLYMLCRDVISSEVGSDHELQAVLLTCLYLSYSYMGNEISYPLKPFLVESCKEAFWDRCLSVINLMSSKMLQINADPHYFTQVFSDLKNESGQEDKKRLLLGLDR
How it was run: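 Caliper microfluidic mobility-shift assay, 12-point dose-response in singlicate. CDK5/p25 at 0.1 nM with 20 μM ATP (Km) and 1 μM peptide substrate. Incubation 3 hr.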

CDK6/Cyclin D3 = CDK6/Cyclin D3 (Homo sapiens, UniProt Q00534); assay: CDK6/Cyclin D3 kinase assay (Nanosyn, Caliper microfluidic); settings: 12-point dose-response, ATP at Km (300 μM), 3 hr
CDK6/Cyclin D3, sequence (Q00534 whole entry): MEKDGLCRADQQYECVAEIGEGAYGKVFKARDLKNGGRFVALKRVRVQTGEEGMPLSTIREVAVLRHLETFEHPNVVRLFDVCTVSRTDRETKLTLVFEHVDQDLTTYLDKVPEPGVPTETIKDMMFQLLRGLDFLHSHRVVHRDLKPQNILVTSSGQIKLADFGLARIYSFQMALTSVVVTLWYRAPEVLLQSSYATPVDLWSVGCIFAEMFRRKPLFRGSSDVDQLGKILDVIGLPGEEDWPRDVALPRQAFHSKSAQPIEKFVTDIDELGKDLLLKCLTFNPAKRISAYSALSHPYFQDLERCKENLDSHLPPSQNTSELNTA
CDK6/Cyclin D3, sequence (P30281 whole entry partner): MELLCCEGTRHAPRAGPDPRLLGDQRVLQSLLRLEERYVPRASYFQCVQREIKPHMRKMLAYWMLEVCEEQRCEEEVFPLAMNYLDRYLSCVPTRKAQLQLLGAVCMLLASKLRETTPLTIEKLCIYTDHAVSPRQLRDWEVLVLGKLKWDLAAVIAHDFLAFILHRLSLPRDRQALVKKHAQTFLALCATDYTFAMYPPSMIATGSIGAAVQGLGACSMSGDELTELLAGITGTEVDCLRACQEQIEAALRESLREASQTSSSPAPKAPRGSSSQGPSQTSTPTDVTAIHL
How it was run: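 Caliper microfluidic assay with 2 nM enzyme, 300 μM ATP and 1 μM phosphoacceptor peptide, incubated for 3 hr. Compounds were run as 12-point dose-response curves in singlicate.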

CDK7/Cyclin H = CDK7/Cyclin H (Homo sapiens, UniProt P50613); assay: CDK7/Cyclin H kinase assay (Nanosyn, Caliper microfluidic); settings: 12-point dose-response, ATP at Km (50 μM), 17 hr
CDK7/Cyclin H, sequence (P50613 whole entry): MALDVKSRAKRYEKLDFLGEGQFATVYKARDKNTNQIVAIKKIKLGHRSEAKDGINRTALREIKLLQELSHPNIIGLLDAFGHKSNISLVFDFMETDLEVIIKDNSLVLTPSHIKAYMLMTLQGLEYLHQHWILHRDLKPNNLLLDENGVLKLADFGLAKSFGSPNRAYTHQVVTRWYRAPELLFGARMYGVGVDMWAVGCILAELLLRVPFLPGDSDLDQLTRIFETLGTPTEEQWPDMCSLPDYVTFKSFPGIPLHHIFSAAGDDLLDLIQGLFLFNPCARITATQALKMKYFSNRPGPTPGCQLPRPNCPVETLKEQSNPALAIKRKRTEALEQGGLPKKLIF
CDK7/Cyclin H, sequence (P51946 whole entry partner): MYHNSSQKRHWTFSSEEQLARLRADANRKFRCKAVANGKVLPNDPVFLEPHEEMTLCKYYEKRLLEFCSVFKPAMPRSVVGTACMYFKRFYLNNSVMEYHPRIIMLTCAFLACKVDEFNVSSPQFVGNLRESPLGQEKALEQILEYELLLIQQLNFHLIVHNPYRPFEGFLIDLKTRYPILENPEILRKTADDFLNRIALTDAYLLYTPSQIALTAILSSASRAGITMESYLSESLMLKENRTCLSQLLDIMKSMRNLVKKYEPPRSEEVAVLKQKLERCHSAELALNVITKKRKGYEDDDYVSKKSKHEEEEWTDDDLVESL
CDK7/Cyclin H, sequence (P51948 whole entry partner): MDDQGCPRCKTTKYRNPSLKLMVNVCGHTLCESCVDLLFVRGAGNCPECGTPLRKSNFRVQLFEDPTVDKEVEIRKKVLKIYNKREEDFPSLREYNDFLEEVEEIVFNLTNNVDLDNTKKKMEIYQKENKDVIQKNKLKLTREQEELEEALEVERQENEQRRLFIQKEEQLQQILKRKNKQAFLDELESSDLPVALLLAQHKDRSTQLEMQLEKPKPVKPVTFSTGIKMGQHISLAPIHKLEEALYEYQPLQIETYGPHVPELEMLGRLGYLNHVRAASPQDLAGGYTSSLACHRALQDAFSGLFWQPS
How it was run: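 Caliper microfluidic mobility-shift assay with 10 nM CDK7/Cyclin H, 50 μM ATP (Km) and 1 μM peptide substrate, incubated 17 hr. Compounds run in 12-point dose-response, singlicate.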

CDK9/Cyclin T = CDK9/Cyclin T (Homo sapiens, UniProt P50750); assay: CDK9/Cyclin T kinase assay (Nanosyn, Caliper microfluidic); settings: 12-point dose-response, ATP at Km (10 μM), 17 hr; Table 5
CDK9/Cyclin T, sequence (P50750 whole entry): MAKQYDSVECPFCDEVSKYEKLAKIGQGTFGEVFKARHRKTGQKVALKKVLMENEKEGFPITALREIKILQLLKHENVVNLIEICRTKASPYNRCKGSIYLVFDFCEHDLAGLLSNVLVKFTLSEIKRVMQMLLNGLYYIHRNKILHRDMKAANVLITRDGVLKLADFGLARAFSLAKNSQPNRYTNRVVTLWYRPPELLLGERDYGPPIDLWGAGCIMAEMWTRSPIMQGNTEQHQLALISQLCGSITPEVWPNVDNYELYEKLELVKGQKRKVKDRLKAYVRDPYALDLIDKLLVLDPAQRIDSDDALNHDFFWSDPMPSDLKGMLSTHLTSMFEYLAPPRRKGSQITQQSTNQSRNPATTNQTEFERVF
CDK9/Cyclin T, sequence (O60563 whole entry partner): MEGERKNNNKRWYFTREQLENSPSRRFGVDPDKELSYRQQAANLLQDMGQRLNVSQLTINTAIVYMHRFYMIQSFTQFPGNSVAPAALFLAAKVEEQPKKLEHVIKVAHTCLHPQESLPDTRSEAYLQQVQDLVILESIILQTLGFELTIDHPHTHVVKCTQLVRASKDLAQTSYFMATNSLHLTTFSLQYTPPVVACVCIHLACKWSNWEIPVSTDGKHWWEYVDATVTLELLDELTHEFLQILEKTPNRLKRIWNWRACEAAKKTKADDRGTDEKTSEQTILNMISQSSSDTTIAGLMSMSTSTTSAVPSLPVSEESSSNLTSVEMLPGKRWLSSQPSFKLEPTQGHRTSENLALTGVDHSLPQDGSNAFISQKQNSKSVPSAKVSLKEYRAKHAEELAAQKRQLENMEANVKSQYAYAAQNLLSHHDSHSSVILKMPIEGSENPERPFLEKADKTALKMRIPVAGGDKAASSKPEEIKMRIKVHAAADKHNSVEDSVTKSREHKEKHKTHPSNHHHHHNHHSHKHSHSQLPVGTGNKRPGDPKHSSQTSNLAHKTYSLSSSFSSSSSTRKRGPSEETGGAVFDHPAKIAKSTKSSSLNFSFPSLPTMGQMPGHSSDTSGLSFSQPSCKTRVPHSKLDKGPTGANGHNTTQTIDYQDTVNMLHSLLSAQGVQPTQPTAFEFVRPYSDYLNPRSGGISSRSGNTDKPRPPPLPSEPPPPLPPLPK
How it was run: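 Caliper microfluidic mobility-shift read-out, 12-point dose-response in singlicate at ATP Km with 1 μM peptide substrate; staurosporine reference.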

CDK1/Cyclin B1, sequence (P06493 whole entry): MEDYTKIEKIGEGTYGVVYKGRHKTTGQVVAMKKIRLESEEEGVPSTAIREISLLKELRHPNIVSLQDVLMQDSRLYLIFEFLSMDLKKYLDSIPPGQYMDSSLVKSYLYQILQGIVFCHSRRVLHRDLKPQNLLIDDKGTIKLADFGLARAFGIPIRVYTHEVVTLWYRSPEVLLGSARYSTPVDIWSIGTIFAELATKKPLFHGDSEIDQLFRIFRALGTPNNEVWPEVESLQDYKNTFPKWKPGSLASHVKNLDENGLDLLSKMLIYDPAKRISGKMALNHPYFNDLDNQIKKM
CDK1/Cyclin B1, sequence (P14635 whole entry partner): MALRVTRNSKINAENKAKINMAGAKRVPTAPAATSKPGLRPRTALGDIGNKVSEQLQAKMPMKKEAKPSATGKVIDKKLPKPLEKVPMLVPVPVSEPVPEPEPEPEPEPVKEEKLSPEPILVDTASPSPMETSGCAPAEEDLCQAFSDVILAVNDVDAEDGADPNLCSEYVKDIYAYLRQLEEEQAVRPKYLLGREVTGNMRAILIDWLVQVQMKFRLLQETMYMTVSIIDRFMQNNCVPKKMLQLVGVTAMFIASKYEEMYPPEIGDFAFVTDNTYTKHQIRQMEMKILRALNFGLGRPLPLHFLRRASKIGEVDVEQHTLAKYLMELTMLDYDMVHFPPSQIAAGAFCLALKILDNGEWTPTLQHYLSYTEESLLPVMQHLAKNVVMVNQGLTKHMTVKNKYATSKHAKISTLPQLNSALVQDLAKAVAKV

IC50 (CDK1/Cyclin B1) [µM]	IC50 (CDK2/Cyclin A) [µM]	IC50 (CDK2/Cyclin E) [µM]	IC50 (CDK3/Cyclin E) [µM]	IC50 (CDK4/Cyclin D1) [µM]	IC50 (CDK5/p35) [µM]	IC50 (CDK5/p25) [µM]	IC50 (CDK6/Cyclin D3) [µM]	IC50 (CDK7/Cyclin H) [µM]	IC50 (CDK9/Cyclin T) [µM]	SMILES
0.078	0.016	0.0087	0.024	0.067	0.032	0.031	0.25	0.28	0.058	C1=NCC2(CCCCC2)n2c1cc1cnc(NC3CCOCC3)nc12 [Compound 52, N-(tetrahydro-2H-pyran-4-yl)-8′H-spiro[cyclohexane-1,9′-pyrazino[1′,2′:1,5]pyrrolo[2,3-d]pyrimidin]-2′-amine]
93	67	> 100	> 100	9	> 100	> 100	> 100	> 100	0.24	O=C1NCC2(CCCCC2)n2c1cc1cnc(NC(=O)[C@H]3CNCC[C@H]3c3ccccc3)nc12 [Compound 28, (3R,4R)-N-(6′-oxo-7′,8′-dihydro-6′H-spiro[cyclohexane-1,9′-pyrazino[1′,2′:1,5]pyrrolo[2,3-d]pyrimidin]-2′-yl)-4-phenylpiperidine-3-carboxamide]
> 100	99	> 100	> 100	47	94	99	> 100	> 100	10	NS(=O)(=O)Cc1cccc(Nc2ncc3cc4n(c3n2)C2(CCCCC2)CNC4=O)c1 [Compound 43, (3-((6′-oxo-7′,8′-dihydro-6′H-spiro[cyclohexane-1,9′-pyrazino[1′,2′:1,5]pyrrolo[2,3-d]pyrimidin]-2′-yl)amino)phenyl)methanesulfonamide]
